Activity calls are given as the source filed them. The calls are words filed in the database; no cut-off is given here.
Key:
Calf thymus DNA [1] = details: Bos taurus
Description: (§1) Inhibitory concentration against ethidium binding to DNA

Nucleic Acid [2] = system: Nucleic Acid
Description: Association constant for binding to poly [d(G-C)]

Nucleic Acid [3] = system: Nucleic Acid; remark: listed apart in the source
Description: Association constant for binding to poly [d(A-T)]

Calf thymus DNA [4] = details: Bos taurus; remark: listed apart in the source
Description: as §1

Description for Mus musculus: Maximum percent increase in life span of mice
Description for physchem: Ionisation constant (pKa)

| SMILES | pKa (physchem) | C50 (Calf thymus DNA [1]) [µM] | Log K (Nucleic Acid [2]) | Log K (Nucleic Acid [3]) | ILS (Mus musculus) | C50 (Calf thymus DNA [4]) [µM] |
| --- | --- | --- | --- | --- | --- | --- |
| Cc1ccccc1Nc1c2ccccc2nc2ccccc12 | 7.76 | 67 | 5.23 | 5.25 | – | – |
| Oc1cccc(Nc2c3ccccc3nc3ccccc23)c1 | 7.3 | – | 6.1 | 6 | inactive | 8.2 |
| COc1ccc(Nc2c3ccccc3nc3ccccc23)cc1 | 7.94 | – | 6.08 | 6.12 | inactive | 7.4 |
